The target in one test is T1, human GzmB (hGzmB) (Homo sapiens, UniProt P10144).
T1 construct: For active GzmB vs pro-GzmB, p < 0.0001
Put plainly: HPLC conversion of fluorogenic peptides by hGzmB. Format: biochemical. As to conditions: TRIS buffer, 37 °C. The procedure:
(§1) Supplementary Figure 1. Reactivity of fluorogenic substrates against human GzmB and limits of detection. a) Reaction conversion rates (by HPLC-UV detection at 350 nm) for Ac-IEPD-AMC (50 μM) in TRIS buffer (see Methods) at 37 °C containing different concentrations of hGzmB. Data presented as mean values±SEM (n=3 independent biological experiments). b) Reaction conversion rates (by HPLC-UV detection at 500 nm) for the tetrapeptide T1 (25 μM) in TRIS buffer at 37 °C containing different concentrations of hGzmB. Data presented as mean values±SEM (3 independent biological experiments).
(§2) Source data provided as a Source Data file.
(§3) (1 picture or pasted object on this page, not shown here)
Supplementary Table 1. Chemical structures and reactivity of FRET-based tetrapeptides against human GzmB.
Code Structure Linker Quencher HPLC conversion HPLC conversion […]
Supplementary Table 2. Sequences and reactivity of FRET-based hexapeptides against […]
Code Peptide sequence HPLC conversion
H1 Ile-Glu-Pro-Asp-Ala-Gly 75%
H2 Ile-Glu-Pro-Asp-Ser-Gly 80%
H3 Ile-Glu-Pro-Asp-Ser-Leu 80%
H4 Ile-Glu-Pro-Asp-Trp-Leu 82%
H6 Ile-Glu-Pro-Asp-Trp-Arg 40%
H7 Ile-Glu-Pro-Asp-Arg-Leu 60%
H5m Ile-Glu-Phe-Asp-Ala-Leu 70%

The test system of the next test is GzmB. The settings on record: 4-mer, fluorogenic dye; ref [39]; cited from earlier work. The text has this: Table 1 Summary of fluorescent peptide-based probes for GzmB. | column: Kcat (s^−1); KM (µM); Kcat/KM (M^−1 s^−1)
A further test has as its system hGzmB. Put plainly: Limit of detection of hGzmB by probe fluorescence. Format: biochemical, human. As to conditions: limit of detection of hGzmB (Fig. S1). The procedure:
as §1, §2, §3
Supplementary Figure 4. Comparative enzyme selectivity and limit of detection for […]
Ac-IEPD-AMC (all at 25 μM) after incubation for 90 min at 37 °C with hGzmB (light gray bars), human caspase-3 (dark gray bars) and hGzmA (white bars) (all enzymes used at 20 nM). Data presented as mean values±SEM (n=3). Excitation wavelengths: 450 nm (for […]
450 nm (for Ac-IEPD-AMC). b) Limit of detection of hGzmB by fluorescence emission […]
presented as mean values±SD (2 independent experiments with 3 technical replicates).

Test [1] deals with human granzyme B (human) (UniProt P10144).
human granzyme B (human), sequence (P10144 21-247): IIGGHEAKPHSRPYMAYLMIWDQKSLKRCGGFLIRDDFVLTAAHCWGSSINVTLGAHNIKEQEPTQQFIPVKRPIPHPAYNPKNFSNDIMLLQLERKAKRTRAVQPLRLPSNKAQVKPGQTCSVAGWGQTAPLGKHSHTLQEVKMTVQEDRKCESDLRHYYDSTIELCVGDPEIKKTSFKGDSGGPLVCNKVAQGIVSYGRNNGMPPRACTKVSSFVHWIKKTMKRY
Test [2] shares this target. This is another data set of the same source.
The target is the same in test [3]. This is another data set of the same source.
The target is the same in test [4]. The source holds these as a separate data set.
The mark [5] stands for this setting: probe 25 μM (Ac-IEPD-AMC 50 μM), HPLC-UV.

*1 amine or outer side, *2 acyl side, *3 side chain or, on linkers, in order; H or OH if unused. Primed or numbered codes have the meaning given here. The star is where a group is joined. BODIPY(FL) = CC1=CC(C)=[N+]2C1=Cc1ccc(CCC(=O)*)n1[B-]2(F)F; Ethylenediamine = C(CN[*:2])N[*:1]; AMC = Cc1cc(=O)oc2cc(N*)ccc12; Dabcyl′ = quencher

T1 sequence (P10144 21-247): as above

Ac-IEPD-{AMC}: the HPLC conversion rate worked out at 0.5% at human GzmB (hGzmB) (2h-20 nM hGzmB, Data 1); 0.5% at human GzmB (hGzmB) (2h-20 nM hGzmB, Data 2); 0.5% at human GzmB (hGzmB) (2h-20 nM hGzmB, Data 3); 2.5% on human GzmB (hGzmB) (2h-50 nM hGzmB, Data 1); 2% at human GzmB (hGzmB) (2h-50 nM hGzmB, Data 2); 2.5% on human GzmB (hGzmB) (2h-50 nM hGzmB, Data 3). In addition, the HPLC conversion rate is 7.5% at human GzmB (hGzmB) (2h-100 nM hGzmB, Data 1); 5% on human GzmB (hGzmB) (2h-100 nM hGzmB, Data 2); 6.5% at human GzmB (hGzmB) (2h-100 nM hGzmB, Data 3); 0.5% on human GzmB (hGzmB) (6h-20 nM hGzmB, Data 1); 0.5% on human GzmB (hGzmB) (6h-20 nM hGzmB, Data 2); 0.75% at human GzmB (hGzmB) (6h-20 nM hGzmB, Data 3). The HPLC conversion rate on human GzmB (hGzmB) (6h-50 nM hGzmB, Data 1) was 3%; on human GzmB (hGzmB) (6h-50 nM hGzmB, Data 2), 2%; on human GzmB (hGzmB) (6h-50 nM hGzmB, Data 3), 2%; at human GzmB (hGzmB) (6h-100 nM hGzmB, Data 1), 8.5%; on human GzmB (hGzmB) (6h-100 nM hGzmB, Data 2), 7%; at human GzmB (hGzmB) (6h-100 nM hGzmB, Data 3), 9%. The HPLC conversion rate at human GzmB (hGzmB) (24h-20 nM hGzmB, Data 1) was determined as 1.5%; at human GzmB (hGzmB) (24h-20 nM hGzmB, Data 2), 1%; on human GzmB (hGzmB) (24h-20 nM hGzmB, Data 3), 1.5%; on human GzmB (hGzmB) (24h-50 nM hGzmB, Data 1) it was 4%; at human GzmB (hGzmB) (24h-50 nM hGzmB, Data 2) it was 2.5%; at human GzmB (hGzmB) (24h-50 nM hGzmB, Data 3), 3.5%. The HPLC conversion rate is 13% on human GzmB (hGzmB) (24h-100 nM hGzmB, Data 1); 9% at human GzmB (hGzmB) (24h-100 nM hGzmB, Data 2); 12.5% on human GzmB (hGzmB) (24h-100 nM hGzmB, Data 3). For the same molecule, the “HPLC conversion (20 nM hGzmB, 2 h)” value at human GzmB (hGzmB) (setting [5]) is given as under 1%. Moreover, the “HPLC conversion (100 nM hGzmB, 24 h)” value at human GzmB (hGzmB) (setting [5]) is recorded as 10%. In addition, the Kcat/KM with GzmB was 3300 M⁻¹ s⁻¹. For the same molecule, the Km (as a rule, the substrate concentration at which the rate is half of its maximum) with GzmB is 160 µM. Further, the catalytic constant (kcat) (commonly the maximal rate divided by the concentration of active sites) in the test with GzmB is 0.5 s⁻¹. In the test with hGzmB, the LoD was found to be 25 nM.
In turn, {BODIPY(FL)}-IEPDSL-{Dabcyl′} [peptide H3] had a conversion (cleavage) by hGzmB in the test with human granzyme B (human) [1] of 80%.
Same read-out and setting: the same measure for {BODIPY(FL)}-IEPDWL-{Dabcyl′} [peptide H4]: 82%; for {BODIPY(FL)}-IEPDRL-{Dabcyl′} [hexapeptide H7]: 60%.
As for {BODIPY(FL)}-IEPDSG-{Dabcyl′} [hexapeptide H2], the conversion (cleavage) after 2 h with 20 nM hGzmB with human granzyme B (human) [1] is 80%.
For the molecule {BODIPY(FL)}-IEPDWR-{Dabcyl′} [hexapeptide H6], the signal-to-background ratio of fluorescence emission (peptide 25 μM, hGzmB 20 nM) with human granzyme B (human) [2] was 12 fold. In the test with human granzyme B (human) [1], the conversion (cleavage) by hGzmB amounted to 40%.
As for {BODIPY(FL)}-IEPD-{Ethylenediamine-Dabcyl′} [tetrapeptide T1], in the test with human granzyme B (human) [3], the KM of cleavage by GzmB is 30.8 µM, the Kcat of cleavage by GzmB turned out to be 2.3 s⁻¹ and the Kcat/KM of cleavage by GzmB amounted to 59000 M⁻¹ s⁻¹. Further, in the test with human granzyme B (human) [4], the enzymatic cleavage of T1 by hGzmB (20 nM for 2 h: <5%; 100 nM for 24 h: 14%) turned out to be 14%.

B1: Ac-IEPD-AMC (peptide)
peptide: Ac-IEPD-{AMC}
SMILES: CC[C@H](C)[C@H](NC(C)=O)C(=O)N[C@@H](CCC(=O)O)C(=O)N1CCC[C@H]1C(=O)N[C@@H](CC(=O)O)C(=O)Nc1ccc2c(C)cc(=O)oc2c1
Turning to B1, the enzymatic cleavage of Ac-IEPD-AMC by hGzmB (20 nM for 2 h: <1%; 100 nM for 24 h: 10%) with human granzyme B (human) [4] was found to be 10%.
On to {BODIPY(FL)}-IEPDAL-{Dabcyl′} [probe H5], for which, in the test with human granzyme B (human) [3], the KM of cleavage by hGzmB (20 nM), Michaelis-Menten fit was 9.6 µM; the Kcat of cleavage by hGzmB (20 nM), Michaelis-Menten fit came out at 117 s⁻¹; the Kcat/KM of cleavage by hGzmB (20 nM), Michaelis-Menten fit amounted to 1.2e+07 M⁻¹ s⁻¹. Besides, in the test with human granzyme B (human) [2], the signal-to-background ratio of fluorescence emission (peptide 25 μM, hGzmB 20 nM) turned out to be 153 fold and the t50: time to reach 50-fold fluorescence increase (peptide 25 μM, hGzmB 20 nM) worked out at 7 min.
Molecule {BODIPY(FL)}-IEPDAG-{Dabcyl′} [hexapeptide H1] displayed a conversion (cleavage) after 2 h with 20 nM hGzmB in the test with human granzyme B (human) [1] of 75%.

The values above are taken from publication PMC9061857, “A fluorogenic probe for granzyme B enables in-biopsy evaluation and screening of response to anticancer immunotherapies” (Nature Communications, 2022).
